The values that follow come from patent US20040034036A1, “N-(3,5-dichloro-2-methoxyphenyl)-4-methoxy-3-piperazin-1-yl-benzenesulfonamide” (priority 2000, published 2004).

The nature of series [1]: MEST (Maximal electroshock seizure threshold) test. As to conditions: procedures described by Upton et al. Format: in vivo.
Series [2] in a line: CNS penetration. The format is in vivo. The settings on record: relative to N-(2,3,5-Trichlorophenyl)-4methoxy-3-piperazin-1-ylbenzenesulfonamide (Example 136 of WO 99/02502).
Series [3] can be described thus: oral bioavailability. As to conditions: in vivo.

Regarding `COc1ccc(S(=O)(=O)Nc2cc(Br)cc(F)c2Br)cc1N1CCNCC1` [Example 140 of WO 99/02502, N-(2,5-Dibromo-3-fluorophenyl)-4-methoxy-3-piperazin-1-ylbenzenesulfonamide, reference compound], in series [1], the “effect in MEST test” value was “pro-convulsant effect”.
On to `COc1ccc(S(=O)(=O)Nc2cc(Cl)cc(Cl)c2OC)cc1N1CCNCC1` [compound of formula (I), N-(3,5-Dichloro-2-methoxy-phenyl)-4-methoxy-3-piperazin-1-yl-benzenesulfonamide], for which the CNS penetration entry in series [2] is “enhanced”. Further, in series [3], the oral bioavailability entry is “high”. The “effect in MEST test” value in series [1] is recorded as “strongly anti-convulsant effect”.
